Tested on: 485176-168-R4-J1-PDC complex spheroid growth
Assay: Anticancer human tumor 485176-168-R4-J1-PDC patient-derived pancreatic adenocarcinoma cell line growth inhibition [RAS]
Conditions: for IC50: curve of first compound; for viability, T/C: stronger effect = lower value
Procedure, shortened: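 Tumour cells grown as complex spheroids with HUVEC endothelial cells and mesenchymal stem cells, treated with RAS pathway inhibitor combinations. Each agent spans half-log steps from near clinical Cmax, or 10 microM where Cmax is unknown.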
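Further: spheroids exposed to compounds for seven days before readout.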
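Wherever viability, T/C is given: luminescence viability expressed relative to DMSO vehicle wells set as 100%.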

CC(=O)OC12COC1CC(O)C1(C)C(=O)C(O)C3=C(C)C(OC(=O)C(O)C(NC(=O)OC(C)(C)C)c4ccccc4)CC(O)(C(OC(=O)c4ccccc4)C21)C3(C)C (stereo unspecified) + CCn1c(-c2cccnc2C(C)OC)c2c3cc(ccc31)N1CCOC(CC(NC(=O)C(C(C)C)N(C)C(=O)C3(F)CCN(C(=O)C#CC(C)(C)N(C)C)CC3)C(=O)N3CCCC(N3)C(=O)OCC(C)(C)C2)C1
IC50 (second compound 0.000949 µM): < 31.6 nM | IC50 (second compound 0.003 µM): < 31.6 nM | IC50 (second compound 0.00949 µM): < 31.6 nM | IC50 (second compound 0.03 µM): < 31.6 nM | IC50 (second compound 0.0949 µM): < 31.6 nM | IC50 (second compound 0.3 µM): < 31.6 nM | viability, T/C (second compound 0.000949 µM, first compound 0.0316 µM): 13.4% | viability, T/C (second compound 0.000949 µM, first compound 0.1 µM): 13.8% | viability, T/C (second compound 0.000949 µM, first compound 0.316 µM): 13.9% | viability, T/C (second compound 0.000949 µM, first compound 1 µM): 10.7% | viability, T/C (second compound 0.000949 µM, first compound 3.16 µM): 13.2% | viability, T/C (second compound 0.000949 µM, first compound 10 µM): 17.7% | viability, T/C (second compound 0.003 µM, first compound 0.0316 µM): 15.3% | viability, T/C (second compound 0.003 µM, first compound 0.1 µM): 12.7% | viability, T/C (second compound 0.003 µM, first compound 0.316 µM): 12.2% | viability, T/C (second compound 0.003 µM, first compound 1 µM): 14% | viability, T/C (second compound 0.003 µM, first compound 3.16 µM): 14.4% | viability, T/C (second compound 0.003 µM, first compound 10 µM): 16.7% | viability, T/C (second compound 0.00949 µM, first compound 0.0316 µM): 15.4% | viability, T/C (second compound 0.00949 µM, first compound 0.1 µM): 14.8% | viability, T/C (second compound 0.00949 µM, first compound 0.316 µM): 12.1% | viability, T/C (second compound 0.00949 µM, first compound 1 µM): 11.9% | viability, T/C (second compound 0.00949 µM, first compound 3.16 µM): 15% | viability, T/C (second compound 0.00949 µM, first compound 10 µM): 17.6% | viability, T/C (second compound 0.03 µM, first compound 0.0316 µM): 14.9% | viability, T/C (second compound 0.03 µM, first compound 0.1 µM): 12.4% | viability, T/C (second compound 0.03 µM, first compound 0.316 µM): 11.1% | viability, T/C (second compound 0.03 µM, first compound 1 µM): 10.3% | viability, T/C (second compound 0.03 µM, first compound 3.16 µM): 14.1% | viability, T/C (second compound 0.03 µM, first compound 10 µM): 16.8% | viability, T/C (second compound 0.0949 µM, first compound 0.0316 µM): 11.2% | viability, T/C (second compound 0.0949 µM, first compound 0.1 µM): 10.4% | viability, T/C (second compound 0.0949 µM, first compound 0.316 µM): 8.86% | viability, T/C (second compound 0.0949 µM, first compound 1 µM): 9.58% | viability, T/C (second compound 0.0949 µM, first compound 3.16 µM): 13.1% | viability, T/C (second compound 0.0949 µM, first compound 10 µM): 16.4% | viability, T/C (second compound 0.3 µM, first compound 0.0316 µM): 11.5% | viability, T/C (second compound 0.3 µM, first compound 0.1 µM): 9.61% | viability, T/C (second compound 0.3 µM, first compound 0.316 µM): 7.21% | viability, T/C (second compound 0.3 µM, first compound 1 µM): 9.28% | viability, T/C (second compound 0.3 µM, first compound 3.16 µM): 11.9% | viability, T/C (second compound 0.3 µM, first compound 10 µM): 16.4%

Cc1nc(N2CCC3(CC2)COC(C)C3N)c(CO)nc1Sc1ccnc(N)c1Cl (stereo unspecified) + C#Cc1c(F)ccc2cc(O)cc(-c3ncc4c(N5CC6CCC(C5)N6)nc(OCC56CCCN5CC(F)C6)nc4c3F)c12
IC50 (second compound 0.0316 µM): > 10000 nM | IC50 (second compound 0.1 µM): > 10000 nM | IC50 (second compound 0.316 µM): > 10000 nM | IC50 (second compound 1 µM): > 10000 nM | IC50 (second compound 3.16 µM): > 10000 nM | IC50 (second compound 10 µM): > 10000 nM | viability, T/C (second compound 0.0316 µM, first compound 0.0316 µM): 111% | viability, T/C (second compound 0.0316 µM, first compound 0.1 µM): 89.3% | viability, T/C (second compound 0.0316 µM, first compound 0.316 µM): 79.5% | viability, T/C (second compound 0.0316 µM, first compound 1 µM): 82.5% | viability, T/C (second compound 0.0316 µM, first compound 3.16 µM): 88.5% | viability, T/C (second compound 0.0316 µM, first compound 10 µM): 73.4% | viability, T/C (second compound 0.1 µM, first compound 0.0316 µM): 91.6% | viability, T/C (second compound 0.1 µM, first compound 0.1 µM): 99.6% | viability, T/C (second compound 0.1 µM, first compound 0.316 µM): 83.4% | viability, T/C (second compound 0.1 µM, first compound 1 µM): 84.4% | viability, T/C (second compound 0.1 µM, first compound 3.16 µM): 85.6% | viability, T/C (second compound 0.1 µM, first compound 10 µM): 83% | viability, T/C (second compound 0.316 µM, first compound 0.0316 µM): 83% | viability, T/C (second compound 0.316 µM, first compound 0.1 µM): 85.4% | viability, T/C (second compound 0.316 µM, first compound 0.316 µM): 86.7% | viability, T/C (second compound 0.316 µM, first compound 1 µM): 70.6% | viability, T/C (second compound 0.316 µM, first compound 3.16 µM): 81.8% | viability, T/C (second compound 0.316 µM, first compound 10 µM): 77.3% | viability, T/C (second compound 1 µM, first compound 0.0316 µM): 85.5% | viability, T/C (second compound 1 µM, first compound 0.1 µM): 102% | viability, T/C (second compound 1 µM, first compound 0.316 µM): 71.4% | viability, T/C (second compound 1 µM, first compound 1 µM): 75.3% | viability, T/C (second compound 1 µM, first compound 3.16 µM): 77.7% | viability, T/C (second compound 1 µM, first compound 10 µM): 70.8% | viability, T/C (second compound 3.16 µM, first compound 0.0316 µM): 92.6% | viability, T/C (second compound 3.16 µM, first compound 0.1 µM): 98.1% | viability, T/C (second compound 3.16 µM, first compound 0.316 µM): 96.2% | viability, T/C (second compound 3.16 µM, first compound 1 µM): 75.9% | viability, T/C (second compound 3.16 µM, first compound 3.16 µM): 86.5% | viability, T/C (second compound 3.16 µM, first compound 10 µM): 64.1% | viability, T/C (second compound 10 µM, first compound 0.0316 µM): 80.4% | viability, T/C (second compound 10 µM, first compound 0.1 µM): 87.4% | viability, T/C (second compound 10 µM, first compound 0.316 µM): 87% | viability, T/C (second compound 10 µM, first compound 1 µM): 82.1% | viability, T/C (second compound 10 µM, first compound 3.16 µM): 80% | viability, T/C (second compound 10 µM, first compound 10 µM): 86.6%

CCc1c2c(nc3ccc(O)cc13)-c1cc3c(c(=O)n1C2)COC(=O)[C@]3(O)CC + C#Cc1c(F)ccc2cc(O)cc(-c3ncc4c(N5CC6CCC(C5)N6)nc(OCC56CCCN5CC(F)C6)nc4c3F)c12
IC50 (second compound 0.0316 µM): 19.3 nM | IC50 (second compound 0.1 µM): 13.4 nM | IC50 (second compound 0.316 µM): 16.4 nM | IC50 (second compound 1 µM): 17.8 nM | IC50 (second compound 3.16 µM): 22.1 nM | IC50 (second compound 10 µM): 27.2 nM | viability, T/C (second compound 0.0316 µM, first compound 0.000949 µM): 93.9% | viability, T/C (second compound 0.0316 µM, first compound 0.003 µM): 82.8% | viability, T/C (second compound 0.0316 µM, first compound 0.00949 µM): 71.2% | viability, T/C (second compound 0.0316 µM, first compound 0.03 µM): 36.8% | viability, T/C (second compound 0.0316 µM, first compound 0.0949 µM): 16.7% | viability, T/C (second compound 0.0316 µM, first compound 0.3 µM): 7.74% | viability, T/C (second compound 0.1 µM, first compound 0.000949 µM): 102% | viability, T/C (second compound 0.1 µM, first compound 0.003 µM): 96.7% | viability, T/C (second compound 0.1 µM, first compound 0.00949 µM): 52.9% | viability, T/C (second compound 0.1 µM, first compound 0.03 µM): 32.2% | viability, T/C (second compound 0.1 µM, first compound 0.0949 µM): 18.3% | viability, T/C (second compound 0.1 µM, first compound 0.3 µM): 6.56% | viability, T/C (second compound 0.316 µM, first compound 0.000949 µM): 112% | viability, T/C (second compound 0.316 µM, first compound 0.003 µM): 107% | viability, T/C (second compound 0.316 µM, first compound 0.00949 µM): 60.7% | viability, T/C (second compound 0.316 µM, first compound 0.03 µM): 35.2% | viability, T/C (second compound 0.316 µM, first compound 0.0949 µM): 16% | viability, T/C (second compound 0.316 µM, first compound 0.3 µM): 6.47% | viability, T/C (second compound 1 µM, first compound 0.000949 µM): 102% | viability, T/C (second compound 1 µM, first compound 0.003 µM): 94.4% | viability, T/C (second compound 1 µM, first compound 0.00949 µM): 63% | viability, T/C (second compound 1 µM, first compound 0.03 µM): 38.6% | viability, T/C (second compound 1 µM, first compound 0.0949 µM): 15.9% | viability, T/C (second compound 1 µM, first compound 0.3 µM): 7.94% | viability, T/C (second compound 3.16 µM, first compound 0.000949 µM): 94.7% | viability, T/C (second compound 3.16 µM, first compound 0.003 µM): 101% | viability, T/C (second compound 3.16 µM, first compound 0.00949 µM): 69.3% | viability, T/C (second compound 3.16 µM, first compound 0.03 µM): 42.9% | viability, T/C (second compound 3.16 µM, first compound 0.0949 µM): 19.1% | viability, T/C (second compound 3.16 µM, first compound 0.3 µM): 9.06% | viability, T/C (second compound 10 µM, first compound 0.000949 µM): 127% | viability, T/C (second compound 10 µM, first compound 0.003 µM): 90.6% | viability, T/C (second compound 10 µM, first compound 0.00949 µM): 77.9% | viability, T/C (second compound 10 µM, first compound 0.03 µM): 46.6% | viability, T/C (second compound 10 µM, first compound 0.0949 µM): 17.7% | viability, T/C (second compound 10 µM, first compound 0.3 µM): 6.96%

From PubChem BioAssay AID2060906 (Molecular Pharmacology Branch, DTP, NCI, 2025)
